Reference: publication PMC11094793, “Discovery of LLC0424 as a Potent and Selective in Vivo NSD2 PROTAC Degrader” (Journal of Medicinal Chemistry, 2024)
Values belong to the compound of their own block, whether it stands above or below them.

How the values were obtained:
NSD2 [1] = target: T1, NSD2 (Homo sapiens, UniProt O96028); assay: Validation of mechanism of action: pretreatment rescue of LLC0424-mediated NSD2 degradation; assay type: cell-based
T1 sequence (O96028 211-350 limits assumed): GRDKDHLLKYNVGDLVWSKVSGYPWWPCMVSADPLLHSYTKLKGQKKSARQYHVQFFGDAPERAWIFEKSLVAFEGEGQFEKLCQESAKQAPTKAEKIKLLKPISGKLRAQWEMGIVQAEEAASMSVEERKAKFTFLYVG

GSPT1 = target: T2, GSPT1 (Homo sapiens, UniProt P15170); assay: GSPT1 level by proteomics and immunoblotting; assay type: cell-based; details: SI Figure S5B, SEM cells
T2 construct: endogenous in cells; host or cells: RPMI-8402, SEM, VCaP
T2 sequence (P15170 whole entry): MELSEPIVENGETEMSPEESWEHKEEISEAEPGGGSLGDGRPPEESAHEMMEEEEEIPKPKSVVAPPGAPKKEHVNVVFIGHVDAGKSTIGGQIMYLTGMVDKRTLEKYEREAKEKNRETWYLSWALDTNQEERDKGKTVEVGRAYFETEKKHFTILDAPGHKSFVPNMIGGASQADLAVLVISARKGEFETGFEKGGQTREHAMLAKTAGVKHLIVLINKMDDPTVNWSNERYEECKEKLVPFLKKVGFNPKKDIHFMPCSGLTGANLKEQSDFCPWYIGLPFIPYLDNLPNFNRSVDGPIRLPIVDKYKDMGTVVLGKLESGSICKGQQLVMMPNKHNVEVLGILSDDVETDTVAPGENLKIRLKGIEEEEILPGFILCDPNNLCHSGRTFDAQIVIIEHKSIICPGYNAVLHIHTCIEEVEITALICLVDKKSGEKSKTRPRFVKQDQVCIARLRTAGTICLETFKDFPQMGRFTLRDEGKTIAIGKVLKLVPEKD
Procedure: We conducted a global proteomic assay using tandem mass tags (TMT) labeled mass-spectrometry to unbiasedly quantify the protein change upon LLC0424 treatment in VCaP and RPMI-8402 cells. […] We further used SEM cell line to cross-validate the selectivity of LLC0424 for NSD2 over NSD1 and NSD3 as well as CRBN neo-substrates IKZF1, IKZF3, GSPT1, and CK-1α using immunoblotting. […] When we increased the treatment time of LLC0424 in SEM cells, we observed mild decrease of GSPT1 from 12 h (SI, Figure S3F).
NSD2 is the primary methyltransferase that transfers dimethyl to H3K36 in ALL with NSD2 gain-of-function mutation. Therefore, the effects of LLC0424 on H3K36me2 was evaluated in SEM and RPMI-8402 cells. […] Meanwhile, LLC0424 treatment also led to downregulation of H3K36Me2 in RPMI-8402 cells within 24 h (Figure 6B). […] We also conducted a colony formation assay to evaluate the effect of LLC0424 on the stem cell-like property of the leukemia cells. […] As LLC0424 leads to strong degradation of both NSD2-L and NSD2-S, the phenotypic changes upon LLC0424 treatment result from complete inactivation of NSD2 activity, including adaptor-like function of NSD2-S and SET-domain dependent enzymatic function of NSD2-L. The specific contributions of NSD2 isoforms warrant future investigation. To characterize the genes affected by LLC0424 treatment, we performed global transcriptome analysis of SEM cells treated by DMSO, LLC0424, or LLC0424N. LLC0424 treatment led to significant changes in the transcriptome of SEM cells with over 326 differentially expressed genes. […] We further explored the contribution of NSD2 loss to the phenotype we observed in SEM cells. […] Still, whether and how LLC0424’s modest effect on GSPT1 contributes to the cytotoxic effects remains to be further explored. We also designed and synthesized the negative control LLC0877 bearing the warhead that is devoid of NSD2 binding (SI, Figure S5A).
After treatment, the cultured cells were collected and rinsed with phosphate-buffered saline (PBS) in room temperature. The cells were treated with RIPA buffers (ThermoFisher Scientific) supplemented with Halt Protease and Phosphatase Inhibitor Cocktail (ThermoFisher Scientific). After sonication and centrifugation, the total amount of protein in the cell lysates was measured by Pierce Bovine Serum Albumin Standard Pre-Diluted Set (ThermoFisher Scientific). After mixed with LDS-sample buffer (Invitrogen) supplemented with Sample Reducing Agent (Invitrogen) and heated in 70 °C for 10 min, equal amount of protein was loaded into NuPAGE 4–12%, Bis-Tris Protein Gel (ThermoFisher Scientific) or NuPAGE 3–8%, Tris-Acetate Protein Gel (ThermoFisher Scientific), and blotted with primary antibodies. […]

SEM cells = assay: Cell viability assay (CellTiter-Glo, 7 days), SEM; assay type: cell-based, human
Procedure: (§1) Cells were plated in 50 μL of the corresponding media in 96-well plates. A 2-fold dilution series of 2* concentrated LLC0424 was prepared in a medium with the highest concentration being 60 μM. Then 50 μL of the 2× compound-containing mixture was added to each well with 6 replicates for each concentration, reaching 1× concentration, with the highest concentration being 30 μM. The plate was incubated for 7 days. At the end point, the CellTiter-Glo assay (Promega) was then performed according to the manufacturer’s instruction to determine cell proliferation. The luminescence signal intensity of each well was acquired on an Infinite M1000Pro microplate reader and the data was analyzed using GraphPad Prism software (GraphPad Software).

RPMI-8402 cells = assay: Cell viability assay (CellTiter-Glo, 7 days), RPMI-8402; assay type: cell-based, human
Procedure: as §1

[2] = target: T3, NSD2 (both long and short isoforms) (Homo sapiens, UniProt O96028); assay: NSD2 degradation by immunoblotting in ALL cell lines RPMI-8402 and SEM (NSD2 E1099K); assay type: cell-based
T3 sequence (O96028 211-350 limits assumed): T1 sequence (O96028 211-350 limits assumed)
Procedure: As previous studies have shown that ALL cell lines with NSD2 gain-of-function mutation are more dependent on NSD2 regarding H3K36me2 level and cell proliferation,[7],[8] we further characterized LLC0424 in ALL cell lines with NSD2 E1099K gain-of-function mutation (RPMI-8402 and SEM). We first treated these cells with LLC0424 with different concentrations for 24 h. […] In addition, we compared the degradation efficiency of LLC0424 with the two previously published NSD2 degraders 6 and 7 at different concentrations and time points.
After treatment, the cultured cells were collected and rinsed with phosphate-buffered saline (PBS) in room temperature. The cells were treated with RIPA buffers (ThermoFisher Scientific) supplemented with Halt Protease and Phosphatase Inhibitor Cocktail (ThermoFisher Scientific). After sonication and centrifugation, the total amount of protein in the cell lysates was measured by Pierce Bovine Serum Albumin Standard Pre-Diluted Set (ThermoFisher Scientific). After mixed with LDS-sample buffer (Invitrogen) supplemented with Sample Reducing Agent (Invitrogen) and heated in 70 °C for 10 min, equal amount of protein was loaded into NuPAGE 4–12%, Bis-Tris Protein Gel (ThermoFisher Scientific) or NuPAGE 3–8%, Tris-Acetate Protein Gel (ThermoFisher Scientific), and blotted with primary antibodies. After incubated with HRP-conjugated secondary antibodies, the membranes were developed with ECL Prime Western Blotting Detection Reagent (cytiva) and imaged on Odyssey Fc Imager (LiCOR Biosciences).

NSD2 [3] = target: T4, NSD2 (Homo sapiens, UniProt O96028); assay: Compound screening: NSD2 degradation by immunoblotting in VCaP cells; details: 2 μM, VCaP cells, 24 h, immunoblotting
T4 sequence (O96028 1-1365): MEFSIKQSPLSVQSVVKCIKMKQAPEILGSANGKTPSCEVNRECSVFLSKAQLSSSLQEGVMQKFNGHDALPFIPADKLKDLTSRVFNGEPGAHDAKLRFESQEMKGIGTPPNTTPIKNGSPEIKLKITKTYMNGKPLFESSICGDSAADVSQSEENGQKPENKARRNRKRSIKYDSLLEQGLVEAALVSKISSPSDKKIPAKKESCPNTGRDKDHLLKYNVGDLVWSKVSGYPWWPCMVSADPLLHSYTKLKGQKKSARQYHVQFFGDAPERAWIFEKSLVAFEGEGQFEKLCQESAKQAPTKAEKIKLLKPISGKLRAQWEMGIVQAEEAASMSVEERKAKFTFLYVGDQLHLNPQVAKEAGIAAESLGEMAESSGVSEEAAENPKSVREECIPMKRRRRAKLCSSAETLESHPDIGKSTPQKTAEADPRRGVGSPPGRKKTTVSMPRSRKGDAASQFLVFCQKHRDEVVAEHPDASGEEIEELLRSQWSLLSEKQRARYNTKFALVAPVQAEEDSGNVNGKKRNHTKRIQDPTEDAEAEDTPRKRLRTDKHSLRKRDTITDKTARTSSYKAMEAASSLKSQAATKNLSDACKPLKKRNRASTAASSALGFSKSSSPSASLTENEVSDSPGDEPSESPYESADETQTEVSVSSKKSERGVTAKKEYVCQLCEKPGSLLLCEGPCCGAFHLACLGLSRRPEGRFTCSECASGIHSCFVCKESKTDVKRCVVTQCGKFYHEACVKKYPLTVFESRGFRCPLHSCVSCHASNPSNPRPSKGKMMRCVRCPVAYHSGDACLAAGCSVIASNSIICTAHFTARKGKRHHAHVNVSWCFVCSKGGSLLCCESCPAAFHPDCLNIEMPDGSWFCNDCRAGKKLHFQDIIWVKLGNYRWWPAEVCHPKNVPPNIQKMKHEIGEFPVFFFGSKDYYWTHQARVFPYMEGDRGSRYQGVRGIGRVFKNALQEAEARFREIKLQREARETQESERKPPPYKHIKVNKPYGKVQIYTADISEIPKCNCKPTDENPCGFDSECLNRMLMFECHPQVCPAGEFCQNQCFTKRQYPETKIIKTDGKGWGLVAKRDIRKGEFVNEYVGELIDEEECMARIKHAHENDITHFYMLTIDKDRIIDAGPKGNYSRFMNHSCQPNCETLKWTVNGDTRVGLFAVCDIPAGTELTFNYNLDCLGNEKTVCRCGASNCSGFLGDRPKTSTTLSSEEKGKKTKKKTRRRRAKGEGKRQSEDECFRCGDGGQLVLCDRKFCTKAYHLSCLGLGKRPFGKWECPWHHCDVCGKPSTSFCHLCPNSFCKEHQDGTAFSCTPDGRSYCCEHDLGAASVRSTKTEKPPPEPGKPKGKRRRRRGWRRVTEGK
Procedure: After treatment, the cultured cells were collected and rinsed with phosphate-buffered saline (PBS) in room temperature. The cells were treated with RIPA buffers (ThermoFisher Scientific) supplemented with Halt Protease and Phosphatase Inhibitor Cocktail (ThermoFisher Scientific). After sonication and centrifugation, the total amount of protein in the cell lysates was measured by Pierce Bovine Serum Albumin Standard Pre-Diluted Set (ThermoFisher Scientific). […] After incubated with HRP-conjugated secondary antibodies, the membranes were developed with ECL Prime Western Blotting Detection Reagent (cytiva) and imaged on Odyssey Fc Imager (LiCOR Biosciences).
Western blot was then performed as previously described to detect NSD2 degradation.

effect of pretreatment on LLC0424-mediated NSD2 degradation (NSD2 [1]; RPMI-8402 and SEM cells, pretreated 2 h, then 2 μM LLC0424 for 12 h): not
SMILES: Cc1ncsc1-c1ccc(CNC(=O)[C@@H]2C[C@@H](O)CN2C(=O)[C@H](C(C)C)N2Cc3ccccc3C2=O)cc1 [VL-285]

SMILES: CC(C)C[C@H](NC(=O)[C@H](Cc1ccccc1)NC(=O)c1cnccn1)B(O)O [bortezomib]
effect of pretreatment on NSD2 protein reduction induced by LLC0424 (NSD2 [1]; RPMI-8402 cells, 2 μM LLC0424): rescued the NSD2 protein reduction induced by LLC0424

GSPT1 degradation by negative control (GSPT1): fast and strong degradation of GSPT1
NSD2 degradation by negative control ([2]; SI Figure S5B, SEM cells): did not degrade NSD2
SMILES: CC(C)N(Cc1ccc(C(=O)Nc2ccc(C(=O)NC3CCN(c4ccc5c(c4)C(=O)N(C4CCC(=O)NC4=O)C5=O)CC3)cc2)cc1)C(=O)c1ccc2c(c1)OCC(=O)N2 (centres unmarked) [LLC0877]
IC50 (growth, cell viability) (SEM cells): lower IC50 values
IC50 (growth, cell viability) (RPMI-8402 cells): lower IC50 values

% Degradation (NSD2 [3]): 11%
NSD2 degradation, comparison of degraders ([2]; RPMI-8402 and SEM cells, 0.5 and 2 μM for 24 h or 2 μM for 12 and 24 h): much less active
SMILES: O=C(CNc1cccc2c1C(=O)N(C1CCC(=O)NC1=O)C2=O)NCCCOc1ccc(NC(=O)c2ccc(CN(C(=O)c3ccc4c(c3)OCC(=O)N4)C3CC3)cc2)nc1 (centres unmarked) [compound 6, reference compound]
